Experimental data reported in patent US20260297085A1, “1 H-PYRROLO[2,3-B]PYRIDIN-4-YL]-2-OXOPYRROLIDINE-3-CARBONITRILE DERIVATIVES AS TYROSINE KINASE 2 (TYK2) INHIBITORS FOR THE TREATMENT OF INFLAMMATORY DISEASES” (BIOGEN MA INC., priority 2023, published 2026).

Columns and labels:
[1] = biological target: T1, human JAK2 kinase domain (JH1) (Homo sapiens, UniProt O60674); experiment: JH1 biochemical assay for JAK2 (ADP-Glo kinase assay, recombinant JH1 catalytic domain, JAK3-974 peptide, 15 μM ATP)
T1 construct: recombinantly generated catalytic kinase (also known as JH1) domain of human JAK1, JAK2, JAK3 and TYK2
T1 sequence (O60674 849-1124 limits assumed): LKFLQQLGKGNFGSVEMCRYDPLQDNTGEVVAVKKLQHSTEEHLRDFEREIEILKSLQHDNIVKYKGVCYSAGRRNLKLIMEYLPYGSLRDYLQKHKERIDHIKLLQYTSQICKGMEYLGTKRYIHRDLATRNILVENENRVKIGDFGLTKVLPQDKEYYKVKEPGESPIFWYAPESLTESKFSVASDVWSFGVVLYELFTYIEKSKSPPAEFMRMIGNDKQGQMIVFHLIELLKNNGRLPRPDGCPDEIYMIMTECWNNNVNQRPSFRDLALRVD
Procedure, shortened: (§1)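 Kinase 4 nM JAK1 / 0.2 nM JAK2 / 0.3 nM JAK3 / 2 nM TYK2; 50 μM peptide; 100 min. Unused ATP depleted, ADP→ATP, luciferase luminescence. 11-pt 3-fold series from 10 or 1 μM; normalized, 4PL fit → IC50.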

[2] = biological target: Tyk2 kinase activity on STAT4 in NK92 cells (Homo sapiens, UniProt P29597); experiment: pSTAT4 cell assay (MSD; NK92 cells, 30 ng/mL IL2 stimulation); format: cell-based; conditions: 30 ng/mL IL2, 15 minutes
Tyk2 kinase activity on STAT4 in NK92 cells, sequence (P29597 whole entry): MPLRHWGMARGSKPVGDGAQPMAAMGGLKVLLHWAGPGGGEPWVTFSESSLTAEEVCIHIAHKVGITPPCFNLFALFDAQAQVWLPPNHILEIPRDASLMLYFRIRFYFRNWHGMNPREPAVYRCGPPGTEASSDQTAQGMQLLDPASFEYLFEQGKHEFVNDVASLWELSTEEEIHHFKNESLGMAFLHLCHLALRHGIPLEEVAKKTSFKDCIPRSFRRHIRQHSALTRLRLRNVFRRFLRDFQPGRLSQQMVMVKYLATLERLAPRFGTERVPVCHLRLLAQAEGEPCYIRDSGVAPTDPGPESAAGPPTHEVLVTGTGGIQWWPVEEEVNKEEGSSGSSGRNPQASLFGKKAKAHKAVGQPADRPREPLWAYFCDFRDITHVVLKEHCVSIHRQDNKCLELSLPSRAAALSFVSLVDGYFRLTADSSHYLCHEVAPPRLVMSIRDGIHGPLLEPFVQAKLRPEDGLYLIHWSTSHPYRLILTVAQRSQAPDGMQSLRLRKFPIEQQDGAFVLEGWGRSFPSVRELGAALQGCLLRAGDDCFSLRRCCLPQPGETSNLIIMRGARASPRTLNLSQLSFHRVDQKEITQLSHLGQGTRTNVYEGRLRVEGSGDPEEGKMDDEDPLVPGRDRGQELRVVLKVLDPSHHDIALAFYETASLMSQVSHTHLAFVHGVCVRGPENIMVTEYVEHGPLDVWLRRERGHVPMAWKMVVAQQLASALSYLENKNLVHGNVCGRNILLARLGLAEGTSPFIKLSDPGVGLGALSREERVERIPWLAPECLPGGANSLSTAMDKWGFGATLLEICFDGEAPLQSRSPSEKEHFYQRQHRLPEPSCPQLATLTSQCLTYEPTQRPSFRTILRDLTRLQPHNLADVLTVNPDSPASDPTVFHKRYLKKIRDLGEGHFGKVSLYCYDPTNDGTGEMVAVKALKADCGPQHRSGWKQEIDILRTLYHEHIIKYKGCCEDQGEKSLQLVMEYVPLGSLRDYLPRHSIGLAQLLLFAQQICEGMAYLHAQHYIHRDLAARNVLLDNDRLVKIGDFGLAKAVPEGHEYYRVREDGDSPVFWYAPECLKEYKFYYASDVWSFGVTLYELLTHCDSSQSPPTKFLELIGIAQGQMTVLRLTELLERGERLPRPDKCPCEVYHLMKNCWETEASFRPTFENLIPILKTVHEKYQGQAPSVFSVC
Procedure, shortened: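 IC50 values come from 4-parameter logistic fits of normalized percent activity. Phospho-STAT was read by MSD (anti-STAT4 antibodies) in NK92 lysates after a 15 min stimulation with 30 ng/mL IL2. The serum-starved cells had been given compound for 1 h (10 points, four-fold, top 10 μM).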

[3] = biological target: T2, human TYK2 kinase domain (JH1) (Homo sapiens, UniProt P29597); experiment: JH1 biochemical assay for TYK2 (ADP-Glo kinase assay, recombinant JH1 catalytic domain, JAK3-974 peptide, 10 μM ATP)
T2 construct: recombinantly generated catalytic kinase (also known as JH1) domain of human JAK1, JAK2, JAK3 and TYK2
T2 sequence (P29597 897-1176 limits assumed): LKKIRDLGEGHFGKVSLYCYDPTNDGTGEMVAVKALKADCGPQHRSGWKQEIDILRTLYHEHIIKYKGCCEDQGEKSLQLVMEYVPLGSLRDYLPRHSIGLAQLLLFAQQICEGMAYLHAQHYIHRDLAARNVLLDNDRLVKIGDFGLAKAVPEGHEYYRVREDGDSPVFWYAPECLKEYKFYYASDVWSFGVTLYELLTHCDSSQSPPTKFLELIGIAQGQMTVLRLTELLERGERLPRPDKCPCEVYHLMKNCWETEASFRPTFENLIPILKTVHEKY
Procedure, shortened: as §1

[4] = biological target: JAK2 kinase activity on STAT5 in TF1 cells (Homo sapiens, UniProt O60674); experiment: pSTAT5 cell assay (MSD; TF1 cells, 30 ng/mL IL-3 stimulation); format: cell-based; conditions: 30 ng/mL IL-3, 15 minutes
JAK2 kinase activity on STAT5 in TF1 cells, sequence (O60674 whole entry): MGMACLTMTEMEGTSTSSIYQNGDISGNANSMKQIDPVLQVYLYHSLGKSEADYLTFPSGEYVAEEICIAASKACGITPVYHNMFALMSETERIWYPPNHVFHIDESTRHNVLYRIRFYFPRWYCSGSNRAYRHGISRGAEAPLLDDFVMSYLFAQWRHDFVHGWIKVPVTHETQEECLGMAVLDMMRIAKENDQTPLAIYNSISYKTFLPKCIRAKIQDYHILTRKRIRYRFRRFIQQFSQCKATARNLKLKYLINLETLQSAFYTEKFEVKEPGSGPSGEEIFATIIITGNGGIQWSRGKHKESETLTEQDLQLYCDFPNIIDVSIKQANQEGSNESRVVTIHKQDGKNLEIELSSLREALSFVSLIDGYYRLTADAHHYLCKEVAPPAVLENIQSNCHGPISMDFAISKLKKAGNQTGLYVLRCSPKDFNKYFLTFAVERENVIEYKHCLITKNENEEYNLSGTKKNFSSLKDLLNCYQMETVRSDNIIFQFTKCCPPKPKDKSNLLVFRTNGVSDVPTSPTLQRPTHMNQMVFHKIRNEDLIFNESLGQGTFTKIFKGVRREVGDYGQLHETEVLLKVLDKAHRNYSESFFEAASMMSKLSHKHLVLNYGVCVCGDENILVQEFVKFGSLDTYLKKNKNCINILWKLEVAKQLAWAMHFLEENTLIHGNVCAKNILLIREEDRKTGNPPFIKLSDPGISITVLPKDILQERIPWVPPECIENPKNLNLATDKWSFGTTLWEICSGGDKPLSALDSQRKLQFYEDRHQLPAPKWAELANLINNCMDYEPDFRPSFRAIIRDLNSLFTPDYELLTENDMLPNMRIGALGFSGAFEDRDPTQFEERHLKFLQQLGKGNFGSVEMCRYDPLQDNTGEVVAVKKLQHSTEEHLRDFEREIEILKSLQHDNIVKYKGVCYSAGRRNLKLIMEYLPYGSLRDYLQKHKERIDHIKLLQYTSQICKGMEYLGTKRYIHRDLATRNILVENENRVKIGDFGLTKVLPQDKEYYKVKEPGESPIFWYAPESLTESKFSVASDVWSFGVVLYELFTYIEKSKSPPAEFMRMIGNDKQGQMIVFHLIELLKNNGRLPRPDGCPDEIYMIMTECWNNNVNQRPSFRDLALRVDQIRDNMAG
Procedure, shortened: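 IC50 from a 4-parameter logistic fit of normalized pSTAT5 signal, measured by MSD in lysates of TF1 cells. Cells were serum-starved, exposed to compound for 1 h (top concentration 10 μM, four-fold, 10 points), then given IL-3 at 30 ng/mL for 15 min.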

[5] = biological target: JAK1 kinase activity on STAT3 in TF1 cells (Homo sapiens, UniProt P23458); experiment: pSTAT3 cell assay (MSD; TF1 cells, 30 ng/mL IL-6 stimulation); format: cell-based; conditions: 30 ng/mL IL-6, 15 minutes
JAK1 kinase activity on STAT3 in TF1 cells, sequence (P23458 whole entry): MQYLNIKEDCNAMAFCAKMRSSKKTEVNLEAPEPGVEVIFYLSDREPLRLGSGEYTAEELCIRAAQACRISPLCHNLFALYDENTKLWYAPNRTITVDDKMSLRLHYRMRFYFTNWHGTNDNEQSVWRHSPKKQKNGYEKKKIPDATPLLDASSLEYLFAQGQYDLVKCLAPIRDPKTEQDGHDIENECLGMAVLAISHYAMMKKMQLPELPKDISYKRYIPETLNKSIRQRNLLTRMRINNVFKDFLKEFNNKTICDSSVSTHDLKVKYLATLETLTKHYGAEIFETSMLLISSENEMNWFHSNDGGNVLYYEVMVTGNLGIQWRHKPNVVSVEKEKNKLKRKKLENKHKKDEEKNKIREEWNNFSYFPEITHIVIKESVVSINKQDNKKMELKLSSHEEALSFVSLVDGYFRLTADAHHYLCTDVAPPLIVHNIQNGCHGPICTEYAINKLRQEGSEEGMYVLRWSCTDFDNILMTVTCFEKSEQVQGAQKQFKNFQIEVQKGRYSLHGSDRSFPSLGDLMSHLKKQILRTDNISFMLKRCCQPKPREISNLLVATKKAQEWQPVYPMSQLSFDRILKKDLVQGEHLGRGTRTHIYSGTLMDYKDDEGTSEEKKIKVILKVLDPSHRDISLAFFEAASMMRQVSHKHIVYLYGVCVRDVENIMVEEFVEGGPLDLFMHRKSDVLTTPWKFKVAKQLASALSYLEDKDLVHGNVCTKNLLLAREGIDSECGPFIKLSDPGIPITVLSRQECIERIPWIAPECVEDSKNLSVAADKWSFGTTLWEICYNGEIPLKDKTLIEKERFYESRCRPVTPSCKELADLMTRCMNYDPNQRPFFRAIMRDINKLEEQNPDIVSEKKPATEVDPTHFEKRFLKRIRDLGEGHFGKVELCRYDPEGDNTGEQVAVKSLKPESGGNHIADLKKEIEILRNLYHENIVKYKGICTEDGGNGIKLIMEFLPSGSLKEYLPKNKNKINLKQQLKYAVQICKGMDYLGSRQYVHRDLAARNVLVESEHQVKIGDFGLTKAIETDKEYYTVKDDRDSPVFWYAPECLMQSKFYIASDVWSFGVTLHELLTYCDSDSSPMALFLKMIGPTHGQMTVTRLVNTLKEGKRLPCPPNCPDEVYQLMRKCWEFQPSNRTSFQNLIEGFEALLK
Procedure, shortened: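 IC50 values derive from 4-parameter logistic fits of normalized pSTAT3 signal, measured by MSD with anti-STAT3 antibodies. TF1 cells, serum-starved beforehand, received compound for 1 hour (top concentration 10 μM, four-fold steps, 10 points) before a 15-minute IL-6 (30 ng/mL) stimulus.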

[6] = biological target: T3, human JAK3 kinase domain (JH1) (Homo sapiens, UniProt P52333); experiment: JH1 biochemical assay for JAK3 (ADP-Glo kinase assay, recombinant JH1 catalytic domain, JAK3-974 peptide, 4 μM ATP)
T3 construct: recombinantly generated catalytic kinase (also known as JH1) domain of human JAK1, JAK2, JAK3 and TYK2
T3 sequence (P52333 822-1111 limits assumed): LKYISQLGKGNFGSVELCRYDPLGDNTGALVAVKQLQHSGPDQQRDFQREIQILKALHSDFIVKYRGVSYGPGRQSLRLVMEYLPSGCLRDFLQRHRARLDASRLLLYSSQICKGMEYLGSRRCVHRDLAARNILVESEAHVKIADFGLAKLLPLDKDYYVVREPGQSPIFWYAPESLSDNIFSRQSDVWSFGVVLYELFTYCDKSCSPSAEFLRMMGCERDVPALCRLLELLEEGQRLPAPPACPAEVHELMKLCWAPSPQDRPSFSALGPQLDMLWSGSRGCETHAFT
Procedure, shortened: as §1

[7] = biological target: T4, human JAK1 kinase domain (JH1) (Homo sapiens, UniProt P23458); experiment: JH1 biochemical assay for JAK1 (ADP-Glo kinase assay, recombinant JH1 catalytic domain, JAK3-342 peptide, 35 μM ATP)
T4 construct: recombinantly generated catalytic kinase (also known as JH1) domain of human JAK1, JAK2, JAK3 and TYK2
T4 sequence (P23458 875-1153 limits assumed): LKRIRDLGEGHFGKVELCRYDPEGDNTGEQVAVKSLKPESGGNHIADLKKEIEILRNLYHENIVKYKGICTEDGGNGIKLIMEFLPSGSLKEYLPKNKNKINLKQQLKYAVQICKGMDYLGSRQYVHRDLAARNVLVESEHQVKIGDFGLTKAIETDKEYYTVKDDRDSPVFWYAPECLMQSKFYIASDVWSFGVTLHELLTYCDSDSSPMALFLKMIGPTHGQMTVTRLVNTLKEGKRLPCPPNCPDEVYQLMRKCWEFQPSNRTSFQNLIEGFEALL
Procedure, shortened: as §1

Structure (SMILES)	IC50 ([1]; JAK2 JH1, ADP-Glo) [µM]	IC50 [2] [µM]	IC50 ([3]; TYK2 JH1, ADP-Glo) [µM]	IC50 [4] [µM]	IC50 [5] [µM]	IC50 ([6]; JAK3 JH1, ADP-Glo) [µM]	IC50 ([7]; JAK1 JH1, ADP-Glo) [µM]	IC50 ([1]; JH1 kinase domain, ADP-Glo) [µM]	IC50 ([3]; JH1 kinase domain, ADP-Glo) [µM]	IC50 ([6]; JH1 kinase domain, ADP-Glo) [µM]	IC50 ([7]; JH1 kinase domain, ADP-Glo) [µM]
Cc1cnn(-c2cc3c(N4C[C@@H](C)[C@@](C#N)(C5CC5)C4=O)ccnn3c2)c1 [Example 333, (3R,4S)-3-cyclopropyl-4-methyl-1-(6-(4-methyl-1H-pyrazol-1-yl)pyrrolo[1,2-b]pyridazin-4-yl)-2-oxopyrrolidine-3-carbonitrile]	0.1 to 1	> 0.1	0.005 to 0.02	> 10	> 10	0.1 to 1	0.1 to 1	–	–	–	–
Cn1cc(-c2cc3c(N4C[C@@H](C(F)F)[C@@](C#N)(C5CC5)C4=O)ccnn3c2)cn1 (racemic) [Example 153, rac-(3R,4S)-3-cyclopropyl-4-(difluoromethyl)-1-(6-(1-methyl-1H-pyrazol-4-yl)pyrrolo[1,2-b]pyridazin-4-yl)-2-oxopyrrolidine-3-carbonitrile]	–	> 0.1	–	> 10	> 10	–	–	1 to 5	0.02 to 0.05	1 to 5	0.1 to 1
C[C@@H]1CN(c2ccnc3cc(-c4cnn(C5CC5)c4)oc23)C(=O)[C@]1(C#N)C1CC1 [Example 347, (3R,4S)-3-cyclopropyl-1-(2-(1-cyclopropyl-1H-pyrazol-4-yl)furo[3,2-b]pyridin-7-yl)-4-methyl-2-oxopyrrolidine-3-carbonitrile]	0.1 to 1	> 0.1	< 0.005	5 to 10	1 to 5	0.1 to 1	0.1 to 1	–	–	–	–
C[C@@H]1CN(c2ccnn3cc(-c4ccc(OC(F)F)nc4)cc23)C(=O)[C@]1(C#N)C1CC1 [Example 176, (3R,4S)-3-cyclopropyl-1-(6-(6-(difluoromethoxy)pyridin-3-yl)pyrrolo[1,2-b]pyridazin-4-yl)-4-methyl-2-oxopyrrolidine-3-carbonitrile]	–	> 0.1	–	> 10	5 to 10	–	–	1 to 5	0.005 to 0.02	0.1 to 1	0.1 to 1
C[C@@H]1CN(c2ccnn3cc(-c4cncc(O)c4)cc23)C(=O)[C@]1(C#N)C1CC1 [Example 53, (3R,4S)-3-cyclopropyl-1-(6-(5-hydroxypyridin-3-yl)pyrrolo[1,2-b]pyridazin-4-yl)-4-methyl-2-oxopyrrolidine-3-carbonitrile]	–	> 0.1	–	> 10	5 to 10	–	–	0.1 to 1	0.005 to 0.02	0.1 to 1	0.1 to 1
C[C@@H]1CN(c2nc(-c3cnn([C@H]4C[C@@](C)(C#N)C4)c3)cn3ncc(F)c23)C(=O)[C@]1(C#N)C1CC1 [Example 307, (3R,4S)-1-(6-(1-((1s,3S)-3-cyano-3-methylcyclobutyl)-1H-pyrazol-4-yl)-3-fluoropyrazolo[1,5-a]pyrazin-4-yl)-3-cyclopropyl-4-methyl-2-oxopyrrolidine-3-carbonitrile]	< 0.1	0.05 to 0.1	< 0.005	1 to 5	0.1 to 1	< 0.1	< 0.1	–	–	–	–
Cc1nc(-c2cn3nccc3c(N3C[C@@H](C)[C@@](C#N)(C4CC4)C3=O)n2)cs1 [Example 214, (3R,4S)-3-cyclopropyl-4-methyl-1-(6-(2-methylthiazol-4-yl)pyrazolo[1,5-a]pyrazin-4-yl)-2-oxopyrrolidine-3-carbonitrile]	–	> 0.1	–	5 to 10	1 to 5	–	–	0.1 to 1	0.005 to 0.02	0.1 to 1	0.1 to 1
C[C@@H]1CN(c2ccnn3cc(-c4cnn(C)c4)nc23)C(=O)[C@]1(C#N)C1CC1 [Example 182, (3R,4S)-3-cyclopropyl-4-methyl-1-(2-(1-methyl-1H-pyrazol-4-yl)imidazo[1,2-b]pyridazin-8-yl)-2-oxopyrrolidine-3-carbonitrile]	–	> 0.1	–	> 10	5 to 10	–	–	0.1 to 1	0.02 to 0.05	0.1 to 1	0.1 to 1
